Experiments:
PBP5 (PBP5_37-678) = assay: NMR chemical shift perturbation titration (2D [1H,15N] TROSY, 2D [1H,13C] ILV methyl HMQC) of stem peptides / PG into PBP5; format: binding, Enterococcus faecium; conditions: peptides up to 1:80 PBP5:SP (SP3 1:1000); PG 1:0.25-1:5
Procedure: Data was processed using Topspin 4.1.4 (Bruker) and analyzed using NMRFAM-SPARKY 1.3 and Poky (build number 20240829)[20],[21]. The sequence-specific backbone assignment of PBP5 is publicly available at BMRBID 51690.
SPs (SP1 to SP7) were titrated into 0.5 mM (^2H,^15N)-labeled and 0.1 mM (^2H,^15N)/^13C ILV labeled PBP5 at molar ratios of 0:1, 5:1, 10:1, 20:1, 40:1, 60:1, and 80:1 (stem peptide/SP:PBP5; molar ratios). 2D [^1H,^15N] TROSY or 2D [^1H,^13C] HMQC spectra were recorded for each titration point. SPs were solubilized in NMR buffer. Chemical shift perturbations (Δδ) between PBP5 and SP bound PBP5 spectra were calculated using Eq. 1,1 Δδppm=ΔδH^2+ΔδX/Y^2 where, X is ^15N or ^13C and Y is the constant i.e., 10 for ^15N and 4 for ^13C.
Residues with significant CSPs were identified by calculating the standard deviation of all CSPs (σ), then excluding any CSPs larger than average+2σ, recalculating σ as a new corrected σ0, and then repetitively removing CSPs above 2σ0 until no additional CSPs can be removed. CSPs above ≥2σ2 was the statistical threshold for ^1H/^15N backbone CSP analysis and ≥2xσ1 for ^1H/^13C methyl ILV data for the interaction of SP1 with PBP5. The same threshold values were used for all other peptides to allow for direct comparison with the SP1/PBP5 interaction. The identical significance analysis was also performed for PenG/ceftaroline saturated PBP5 (1:8 molar ratio of PBP5 to β-lactam antibiotics was used to ensure saturation of an extended time period needed for the SP titrations) SP interaction studies; CSPs above ≥2σ3 was the statistical threshold for ^1H/^15N backbone CSP analysis and ≥2xσ2 for ^1H/^13C methyl ILV data to identify all residues with a statistically significant change in its chemical shift upon SP interaction.
Residue specific KD values were calculated by using Eq. 2[23],2 CSPobs=CSPmax/2PP+S+KD−P+S+KD^2−4[S][P] where P and S are the concentration of PBP5 and SP1, respectively. CSPobs is the experimentally observed chemical shift value and CSPmax is the largest experimentally observed chemical shift value of the residue. […] The lack of saturation was due to the limited amount of available SP peptide due to their difficult synthesis. Residues used for KD calculation were common residues with statistically significant CSPs in the interaction studies of SP1 and SP2 with PBP5 at a 1:80 ratio.

PBP5 = assay: 1D 1H STD NMR of stem peptides with PBP5; format: binding, Enterococcus faecium; conditions: for STD % to SP1: normalised to highest SP1:PBP5 value; for STD amplification factor: protein:peptide 1:100, 2 s saturation, 308 K
Source text: Total saturation time for STD measurements was 2 s.
Overlapped peaks were completely excluded from the analysis.

D-Lac-L-Ala-D-nGln-L-Lys(D-iAsn)-D-Ala-D-Ala [SP6]
interaction with PBP5 by CSPs, in words (PBP5 (PBP5_37-678)): more akin to that of SP1 than SP4
STD amplification factor as fraction of highest SP1:PBP5 value (PBP5; 1H DA4α,LA1α,DQ2α): 0.3043
STD % to SP1 (PBP5; 1H DA4α,LA1α,DQ2α): 30.434%
STD amplification factor (PBP5; 1H DA4α,LA1α,DQ2α): 8.1893
STD amplification factor as fraction of highest SP1:PBP5 value (PBP5; 1H DA4β, DLacβ): 0.3219
STD % to SP1 (PBP5; 1H DA4β, DLacβ): 32.1881%
STD amplification factor (PBP5; 1H DA4β, DLacβ): 8.661
STD amplification factor as fraction of highest SP1:PBP5 value (PBP5; 1H DA5α): 0.8446
STD % to SP1 (PBP5; 1H DA5α): 84.4584%
STD amplification factor (PBP5; 1H DA5α): 22.7264
STD amplification factor as fraction of highest SP1:PBP5 value (PBP5; 1H DA5β): 0.4039
STD % to SP1 (PBP5; 1H DA5β): 40.3917%
STD amplification factor (PBP5; 1H DA5β): 10.8688
STD amplification factor as fraction of highest SP1:PBP5 value (PBP5; 1H DQ2β (first listed)): 0.9448
STD % to SP1 (PBP5; 1H DQ2β (first listed)): 94.4801%
STD amplification factor (PBP5; 1H DQ2β (first listed)): 25.4231
STD amplification factor as fraction of highest SP1:PBP5 value (PBP5; 1H DQ2β (second listed)): 1.053
STD % to SP1 (PBP5; 1H DQ2β (second listed)): 105.321%
STD amplification factor (PBP5; 1H DQ2β (second listed)): 28.3401
STD amplification factor as fraction of highest SP1:PBP5 value (PBP5; 1H DQ2γ): 0.4867
STD % to SP1 (PBP5; 1H DQ2γ): 48.6725%
STD amplification factor (PBP5; 1H DQ2γ): 13.097
STD amplification factor as fraction of highest SP1:PBP5 value (PBP5; 1H K3β): 0.991
STD % to SP1 (PBP5; 1H K3β): 99.098%
STD amplification factor (PBP5; 1H K3β): 26.6657
STD amplification factor as fraction of highest SP1:PBP5 value (PBP5; 1H K3δ): 0.802
STD % to SP1 (PBP5; 1H K3δ): 80.2012%
STD amplification factor (PBP5; 1H K3δ): 21.5809
STD amplification factor as fraction of highest SP1:PBP5 value (PBP5; 1H LA1β): 0.4375
STD % to SP1 (PBP5; 1H LA1β): 43.7522%
STD amplification factor (PBP5; 1H LA1β): 11.773
STD amplification factor as fraction of highest SP1:PBP5 value (PBP5; 1H iNα ,Dlacα,K3α): 0.4025
STD % to SP1 (PBP5; 1H iNα ,Dlacα,K3α): 40.2497%
STD amplification factor (PBP5; 1H iNα ,Dlacα,K3α): 10.8306
STD amplification factor as fraction of highest SP1:PBP5 value (PBP5; 1H iNβ): 0.4322
STD % to SP1 (PBP5; 1H iNβ): 43.2239%
STD amplification factor (PBP5; 1H iNβ): 11.6309

D-Lac-L-Ala-D-iGln-Gly-D-Ala-D-Ala [SP4, SP with L-Lys(D-iAsn) replaced by Gly]
interaction with PBP5 by CSPs, in words (PBP5 (PBP5_37-678)): interacts with PBP5 very poorly
STD amplification factor as fraction of highest SP1:PBP5 value (PBP5; 1H DA4β, DLacβ): 0.2081
STD % to SP1 (PBP5; 1H DA4β, DLacβ): 20.809%
STD amplification factor (PBP5; 1H DA4β, DLacβ): 5.599
STD amplification factor as fraction of highest SP1:PBP5 value (PBP5; 1H DA5α): 0.5864
STD % to SP1 (PBP5; 1H DA5α): 58.6405%
STD amplification factor (PBP5; 1H DA5α): 15.7792
STD amplification factor as fraction of highest SP1:PBP5 value (PBP5; 1H DA5β): 0.2717
STD % to SP1 (PBP5; 1H DA5β): 27.1666%
STD amplification factor (PBP5; 1H DA5β): 7.3101
STD amplification factor as fraction of highest SP1:PBP5 value (PBP5; 1H DQ2α,Dlacα,DA4α,LA1α): 0.3132
STD % to SP1 (PBP5; 1H DQ2α,Dlacα,DA4α,LA1α): 31.3217%
STD amplification factor (PBP5; 1H DQ2α,Dlacα,DA4α,LA1α): 8.428
STD amplification factor as fraction of highest SP1:PBP5 value (PBP5; 1H DQ2β (first listed)): 0.6761
STD % to SP1 (PBP5; 1H DQ2β (first listed)): 67.6099%
STD amplification factor (PBP5; 1H DQ2β (first listed)): 18.1927
STD amplification factor as fraction of highest SP1:PBP5 value (PBP5; 1H DQ2β (second listed)): 0.8081
STD % to SP1 (PBP5; 1H DQ2β (second listed)): 80.8137%
STD amplification factor (PBP5; 1H DQ2β (second listed)): 21.7457
STD amplification factor as fraction of highest SP1:PBP5 value (PBP5; 1H DQ2γ): 0.2977
STD % to SP1 (PBP5; 1H DQ2γ): 29.7735%
STD amplification factor (PBP5; 1H DQ2γ): 8.012
STD amplification factor as fraction of highest SP1:PBP5 value (PBP5; 1H G3α): 0.19
STD % to SP1 (PBP5; 1H G3α): 19.0039%
STD amplification factor (PBP5; 1H G3α): 5.114
STD amplification factor as fraction of highest SP1:PBP5 value (PBP5; 1H LA1β): 0.2515
STD % to SP1 (PBP5; 1H LA1β): 25.1468%
STD amplification factor (PBP5; 1H LA1β): 6.767

D-Ala-D-Ala [SP3]
interaction with PBP5 by CSPs, in words (PBP5 (PBP5_37-678)): no CSPs were observed

D-Lac-L-Ala-D-iGln-L-Lys-D-Ala-D-Ala [SP5]
interaction with PBP5 by CSPs, in words (PBP5 (PBP5_37-678)): weaker interaction
STD amplification factor as fraction of highest SP1:PBP5 value (PBP5; 1H D5α): 0.4969
STD % to SP1 (PBP5; 1H D5α): 49.685%
STD amplification factor (PBP5; 1H D5α): 13.3694
STD amplification factor as fraction of highest SP1:PBP5 value (PBP5; 1H DA4α,LA1α): 0.2481
STD % to SP1 (PBP5; 1H DA4α,LA1α): 24.8062%
STD amplification factor (PBP5; 1H DA4α,LA1α): 6.675
STD amplification factor as fraction of highest SP1:PBP5 value (PBP5; 1H DA4β, DLacβ): 0.2031
STD % to SP1 (PBP5; 1H DA4β, DLacβ): 20.3132%
STD amplification factor (PBP5; 1H DA4β, DLacβ): 5.466
STD amplification factor as fraction of highest SP1:PBP5 value (PBP5; 1H DA5β): 0.283
STD % to SP1 (PBP5; 1H DA5β): 28.3024%
STD amplification factor (PBP5; 1H DA5β): 7.616
STD amplification factor as fraction of highest SP1:PBP5 value (PBP5; 1H DQ2α,Dlacα): 0.2004
STD % to SP1 (PBP5; 1H DQ2α,Dlacα): 20.0424%
STD amplification factor (PBP5; 1H DQ2α,Dlacα): 5.393
STD amplification factor as fraction of highest SP1:PBP5 value (PBP5; 1H DQ2β (first listed)): 0.5843
STD % to SP1 (PBP5; 1H DQ2β (first listed)): 58.4308%
STD amplification factor (PBP5; 1H DQ2β (first listed)): 15.7228
STD amplification factor as fraction of highest SP1:PBP5 value (PBP5; 1H DQ2β (second listed)): 0.7133
STD % to SP1 (PBP5; 1H DQ2β (second listed)): 71.3266%
STD amplification factor (PBP5; 1H DQ2β (second listed)): 19.1928
STD amplification factor as fraction of highest SP1:PBP5 value (PBP5; 1H DQ2γ): 0.2744
STD % to SP1 (PBP5; 1H DQ2γ): 27.4437%
STD amplification factor (PBP5; 1H DQ2γ): 7.385
STD amplification factor as fraction of highest SP1:PBP5 value (PBP5; 1H K3α): 0.381
STD % to SP1 (PBP5; 1H K3α): 38.104%
STD amplification factor (PBP5; 1H K3α): 10.2532
STD amplification factor as fraction of highest SP1:PBP5 value (PBP5; 1H K3β): 0.5122
STD % to SP1 (PBP5; 1H K3β): 51.2163%
STD amplification factor (PBP5; 1H K3β): 13.7815
STD amplification factor as fraction of highest SP1:PBP5 value (PBP5; 1H K3δ): 0.5418
STD % to SP1 (PBP5; 1H K3δ): 54.1786%
STD amplification factor (PBP5; 1H K3δ): 14.5786
STD amplification factor as fraction of highest SP1:PBP5 value (PBP5; 1H K3ε): 0.2671
STD % to SP1 (PBP5; 1H K3ε): 26.7058%
STD amplification factor (PBP5; 1H K3ε): 7.186
STD amplification factor as fraction of highest SP1:PBP5 value (PBP5; 1H LA1β): 0.2119
STD % to SP1 (PBP5; 1H LA1β): 21.1895%
STD amplification factor (PBP5; 1H LA1β): 5.702
